How the values were obtained:
Tankyrase-1 = target: T1, Tankyrase-1 (Homo sapiens, UniProt O95271); assay: Tankyrase 1 autoparsylation assay (HTRF enzyme assay); format: biochemical; settings: GST-tagged Tankyrase-1 (1023-1327 aa)
T1 construct: GST-tagged Tankyrase-1 (1023-1327 aa)
Description: Biochemical activity testing of Tankyrase 1 and 2: Autoparsylation assay
(§1) The autoparsylation assay is run in two steps: the enzymatic reaction in which GST-tagged Tankyrase-1, resp Tankyrase-2 transferred biotinylated ADP-ribose to itself from biotinylated NAD as co-substrate and the detection reaction where a time resolved FRET between cryptate labelled anti-GST bound to the GST tag of the enzyme and Xlent® labelled-streptavidin bound the biotin-parsylation residue is analysed. The autoparsylation activity was detectable directly via the increase in HTRF signal.
The autoparsylation assay is performed as 384-well HTRF® (Cisbio, Codolet, France) assay format in Greiner low volume nb 384-well microtiter plates and is used for high throughput screen. 250 nM GST-tagged Tankyrase-1 (1023-1327 aa), respectively about 250 nM GST-tagged Tankyrase-2 (873-1166 aa) and 5 μM bio-NAD (Biolog, Life science Inst., Bremen, Germany) as co-substrate are incubated in a total volume of 5 μl (50 mM HEPES, 4 mM Mg-chloride, 0.05% Pluronic F-68, 1.4 mM DTT, 0.5% DMSO, pH 7.7) in the absence or presence of the test compound (10 dilution concentrations) for 90 min at 30° C. The reaction is stopped by the addition of 1 μl 50 mM EDTA solution. 2 μl of the detection solution (1.6 μM SA-Xlent® (Cisbio, Codolet, France), 7.4 nM Anti-GST-K® (Eu-labelled anti-GST, Cisbio, Codolet, France) in 50 mM HEPES, 800 mM KF, 0.1% BSA, 20 mM EDTA, 0.1% CHAPS, pH 7.0) are added. After 1 h incubation at room temperature the HTRF is measured with an Envision multimode reader (Perkin Elmer LAS Germany GmbH) at excitation wavelength 340 nm (laser mode) and emission wavelengths 615 nm and 665 nm. The ratio of the emission signals is determined. The full value used is the inhibitor-free reaction. The pharmacological zero value used is XAV-939 (Tocris) in a final concentration of 5 μM. The inhibitory values (IC50) are determined using either the program Symyx Assay Explorer® or Condosseo® from GeneData.

PARP-1 = target: T2, PARP-1 (Homo sapiens, UniProt P09874); assay: PARP-1 autoparsylation assay (HTRF); format: biochemical; settings: His-tagged Parp-1, human recombinant
T2 construct: purchased Enzo Life Sciences GmbH, Lorrach, Germany
Text: Description of the PARP1 Assay
Biochemical Activity Testing of PARP-1: Autoparsylation Assay
as §1, with “His-tagged Parp-1 transfers” for “GST-tagged Tankyrase-1, resp Tankyrase-2 transferred”, “ADP-ribose/ADP-ribose” for “ADP-ribose”, “NAD/NAD” for “NAD”, “anti-His antibody” for “anti-GST”, “His” for “GST”, “is” for “was”
The autoparsylation assay is performed as 384-well HTRF® (Cisbio, Codolet, France) assay format in Greiner low volume nb 384-well microtiter plates. 35 nM His-tagged Parp-1 (human, recombinant, Enzo Life Sciences GmbH, Lorrach, Germany) and a mixture of 125 nM bio-NAD (Biolog, Life science Inst., Bremen, Germany) and 800 nM NAD as co-substrate are incubated in a total volume of 6 μl (100 mM Tris/HCl, 4 mM Mg-chloride, 0.01% IGEPAL® CA630, 1 mM DTT , 0.5% DMSO, pH 8, 13 ng/μl activated DNA (BPS Bioscience, San Diego, US)) in the absence or presence of the test compound (10 dilution concentrations) for 150 min at 23° C. The reaction is stopped by the addition of 4 μl of the Stop/detection solution (70 nM SA-Xlent® (Cisbio, Codolet, France), 2.5 nM Anti-His-K® (Eu-labelled anti-His, Cisbio, Codolet, France) in 50 mM HEPES, 400 mM KF, 0.1% BSA, 20 mM EDTA, pH 7.0). After 1 h incubation at room temperature the HTRF iss measured with an Envision multimode reader (Perkin Elmer LAS Germany GmbH) at excitation wavelength 340 nm (laser mode) and emission wavelengths 615 nm and 665 nm. The ratio of the emission signals is determined. The full value used is the inhibitor-free reaction. The pharmacological zero value used is Olaparib (LClabs, Woburn, US) in a final concentration of 1 μM. The inhibitory values (IC50) are determined using either the program Symyx Assay Explorer® or Condosseo® from GeneData.

T1 sequence (O95271 1023-1327): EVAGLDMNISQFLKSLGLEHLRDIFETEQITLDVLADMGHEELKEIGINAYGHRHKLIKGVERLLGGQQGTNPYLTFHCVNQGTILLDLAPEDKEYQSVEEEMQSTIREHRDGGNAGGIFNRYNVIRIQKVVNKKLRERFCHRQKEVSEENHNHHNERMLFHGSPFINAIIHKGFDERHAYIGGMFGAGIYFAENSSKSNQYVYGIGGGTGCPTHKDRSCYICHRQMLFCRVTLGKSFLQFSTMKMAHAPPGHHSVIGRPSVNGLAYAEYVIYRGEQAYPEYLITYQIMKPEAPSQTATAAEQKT
T2 sequence (P09874 whole entry): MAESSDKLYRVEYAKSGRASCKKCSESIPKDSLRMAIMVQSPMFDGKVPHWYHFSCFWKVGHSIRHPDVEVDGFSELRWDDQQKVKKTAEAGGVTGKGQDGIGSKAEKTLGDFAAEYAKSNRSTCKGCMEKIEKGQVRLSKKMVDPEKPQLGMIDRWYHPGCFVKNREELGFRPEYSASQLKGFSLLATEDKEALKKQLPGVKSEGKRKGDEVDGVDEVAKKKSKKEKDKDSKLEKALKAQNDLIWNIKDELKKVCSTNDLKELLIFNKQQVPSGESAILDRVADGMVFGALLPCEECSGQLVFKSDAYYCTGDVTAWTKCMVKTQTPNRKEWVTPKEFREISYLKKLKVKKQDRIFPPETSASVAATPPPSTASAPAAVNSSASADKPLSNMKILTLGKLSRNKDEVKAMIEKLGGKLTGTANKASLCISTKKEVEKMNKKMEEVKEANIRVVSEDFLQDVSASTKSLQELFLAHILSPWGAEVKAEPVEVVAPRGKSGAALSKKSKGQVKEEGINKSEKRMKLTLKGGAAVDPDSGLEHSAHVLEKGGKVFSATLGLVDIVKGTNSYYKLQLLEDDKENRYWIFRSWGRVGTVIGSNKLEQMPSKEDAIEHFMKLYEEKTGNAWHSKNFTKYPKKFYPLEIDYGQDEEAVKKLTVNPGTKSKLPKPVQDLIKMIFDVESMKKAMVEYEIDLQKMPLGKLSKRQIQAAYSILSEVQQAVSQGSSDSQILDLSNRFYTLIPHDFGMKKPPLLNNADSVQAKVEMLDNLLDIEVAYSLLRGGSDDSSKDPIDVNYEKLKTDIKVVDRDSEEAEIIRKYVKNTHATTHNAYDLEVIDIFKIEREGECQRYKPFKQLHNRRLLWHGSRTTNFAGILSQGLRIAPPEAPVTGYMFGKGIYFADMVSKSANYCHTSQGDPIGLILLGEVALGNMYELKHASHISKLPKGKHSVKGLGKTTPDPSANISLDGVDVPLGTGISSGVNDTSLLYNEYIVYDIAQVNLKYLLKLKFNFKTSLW

Structure (SMILES)	IC50 (Tankyrase-1) [nM]	IC50 (PARP-1) [nM]
Cc1ccc(-c2cc3cc(F)ccc3c(=O)[nH]2)cc1 [Compound A10, 6-fluoro-3-p-tolyl-2H-isoquinolin-1-one]	300 to 3000	3000 to 50000
CC(C)(O)c1ccc(-c2cc3ccccc3c(=O)[nH]2)cc1 [Compound A3, 3-[4-(1-hydroxy-1-methyl-ethyl)-phenyl]-2H-isoquinolin-1-one]	< 300	300 to 3000
COC(C)(C)c1ccc(-c2cc3ccccc3c(=O)[nH]2)cc1 [Compound A15, 3-[4-(1-methoxy-1-methyl-ethyl)-phenyl]-2H-isoquinolin-1-one]	< 300	300 to 3000
CC(C)(O)c1ccc(-c2cc3cnccc3c(=O)[nH]2)cc1 [Compound A23, 3-[4-(1-hydroxy-1-methyl-ethyl)phenyl]-2H-2,6-naphthyridin-1-one]	< 300	3000 to 50000
Cn1cc(-c2ccc(-c3cc4ccncc4c(=O)[nH]3)cc2)cn1 [Compound A14, 3-[4-(1-Methyl-1H-pyrazol-4-yl)-phenyl]-2H-[2,7]naphthyridin-1-one]	< 300	3000 to 50000
Cc1ccc(-c2cc3c(C)cccc3c(=O)[nH]2)cc1 [Compound A29, 5-methyl-3-(p-tolyl)-2H-isoquinolin-1-one]	< 300	< 300
CC(C)(O)c1ccc(-c2cc3c(F)cc(F)cc3c(=O)[nH]2)cc1 [Compound A33, 5,7-difluoro-3-[4-(1-hydroxy-1-methyl-ethyl)-phenyl]-2H-isoquinolin-1-one]	< 300	< 300
C=C(C)c1ccc(-c2cc3ccc(F)cc3c(=O)[nH]2)cc1 [Compound A17, 7-fluoro-3-(4-isopropenyl-phenyl)-2H-isoquinolin-1-one]	< 300	300 to 3000
Cc1ccc(-c2cc3c(F)cccc3c(=O)[nH]2)cc1 [Compound A12, 5-fluoro-3-p-tolyl-2H-isoquinolin-1-one]	< 300	300 to 3000
CC(C)(N)c1ccc(-c2cc3ccc(F)cc3c(=O)[nH]2)cc1 [Compound A20, 3-[4-(1-amino-1-methyl-ethyl)phenyl]-7-fluoro-2H-isoquinolin-1-one]	< 300	< 300
CC(C)(O)c1ccc(-c2cc3cccc(F)c3c(=O)[nH]2)cc1 [Compound A27, 8-fluoro-3-[4-(1-hydroxy-1-methyl-ethyl)phenyl]-2H-isoquinolin-1-one]	< 300	300 to 3000
CC(C)(O)c1ccc(-c2cc3ccncc3c(=O)[nH]2)cc1 [Compound A24, 3-[4-(1-hydroxy-1-methyl-ethyl)phenyl]-2H-2,7-naphthyridin-1-one]	< 300	3000 to 50000
CC(C)(O)c1ccc(-c2cc3c(F)cccc3c(=O)[nH]2)cc1 [Compound A28, 5-fluoro-3-[4-(1-hydroxy-1-methyl-ethyl)phenyl]-2H-isoquinolin-1-one]	< 300	300 to 3000
CC(C)(O)c1ccc(-c2cc3ccc(F)cc3c(=O)[nH]2)cc1 [Compound A6, 7-fluoro-3-[4-(1-hydroxy-1-methyl-ethyl)-phenyl]-2H-isoquinolin-1-one]	< 300	300 to 3000
Cn1cc(-c2ccc(-c3cc4ccc(F)cc4c(=O)[nH]3)cc2)cn1 [Compound A18, 7-fluoro-3-[4-(1-methyl-1H-pyrazol-4-yl)-phenyl]-2H-isoquinolin-1-one]	< 300	300 to 3000
Cc1ccc(-c2cc3cccc(F)c3c(=O)[nH]2)cc1 [Compound A11, 8-fluoro-3-p-tolyl-2H-isoquinolin-1-one]	< 300	300 to 3000
Cc1ccc(-c2cc3ccc(F)cc3c(=O)[nH]2)cc1 [Compound A9, 7-fluoro-3-p-tolyl-2H-isoquinolin-1-one]	< 300	< 300
CC(C)(OCCO)c1ccc(-c2cc3ccc(F)cc3c(=O)[nH]2)cc1 [Compound A16, 7-fluoro-3-{4-[1-(2-hydroxy-ethoxy)-1-methyl-ethyl]-phenyl}-2H-isoquinolin-1-one]	< 300	300 to 3000
CC(C)(O)c1ccc(-c2cc3cc(F)ccc3c(=O)[nH]2)cc1 [Compound A5, 6-fluoro-3-[4-(1-hydroxy-1-methyl-ethyl)-phenyl]-2H-isoquinolin-1-one]	< 300	300 to 3000

— patent publication US9376433B2, “(AZA-)isoquinolinone derivatives” (MERCK PATENT GMBH, priority 2012, dated 2016)
